Experimental data reported in patent publication US4241052A, “Novel nitrosourea compounds and process for preparing the same” (Tanabe Seiyaku Co., Ltd., priority 1978, dated 1980).

Assays:
leukemic cells = details: Japanese Patent Publication No. 141815/1976; cited from earlier work
[1] = system: tumor cells of lymphoid leukemia L-1210; details: tumor cells implanted intraperitoneally; U.S. Pat. No. 4086451 and Japanese publications; cited from earlier work
[2] = Preventive effect against the growth of Ehrlich ascites carcinoma (Method A); assay type: in vivo, mice (ICR, female); details: mouse, in vivo, ip; max dose, 100% inhibition without death; doses of the table in mg/kg/day; read-out: MTD (Maximum Tolerated Dose)
Method: (§1) (A) Preventive effect against the growth of Ehrlich ascites tumor
(§2) 10^6 tumor cells of Ehrlich ascites carcinoma were inoculated intraperitoneally into a group of five femal mice (ICR mice, body weight: 19-23 g). A test compound was dissolved in a physiological saline solution and administered intraperitoneally to the mice. The administration of the test compound was began 24 hours after the inoculation of the tumor cells and performed once a day for 5 days. The volume of ascites in the treated mice were measured after 7 days of the experiment.

[3] = system: Ehrlich ascites carcinoma; experiment: as above; assay type: in vivo, mice (ICR, female); details: for inhibition in vivo at 1.56 mg/kg: 1.56 mg/kg/day i.p.; for inhibition in vivo at 6.25 mg/kg: 6.25 mg/kg/day i.p.; for inhibition in vivo at 100 mg/kg: 100 mg/kg/day i.p.; for inhibition in vivo at 400 mg/kg: 400 mg/kg/day i.p.; for minimal effective dose: 168 h, min dose, 100% inhibition, read-out: MED (Minimum Effective Dose)
Method: as §1, §2

Leukemia L-1210 = experiment: Effect on life span of mice implanted with leukemic cells of L-1210 (Method B); assay type: in vivo, mice (BDF1, male); details: 5 days
Method: (B) Effect on the life span of mice implanted with leukemic cells of L-1210
10^5 leukemic cells of L-1210 were inoculated intraperitoneally into a group of four male mice (BDF1 mice, body weight: 19-23 g). A test compound was dissolved in a physiological saline solution and administered intraperitoneally to the mice. The administration of the test compound was began 24 hours after the inoculation of the leukemic cells and performed once a day for 5 days. The survival days of the treated mice were observed.

[4] = Mus musculus, Ehrlich, ip, 120 h, 0.78 mg/kg/day i.p., 5 days, read-out: Inhibition ratio
[5] = Mus musculus, Ehrlich, ip, 120 h, 5 days, read-out: Inhibition ratio
[6] = Mus musculus, Ehrlich, ip, 120 h, 25 mg/kg/day i.p., 5 days, read-out: Inhibition ratio
[7] = Mus musculus, Ehrlich, ip, doses of the table in mg/kg/day
[8] = Mus musculus, Ehrlich, ip, 120 h, 0.39 mg/kg/day i.p., 5 days, read-out: Inhibition ratio
[9] = Mus musculus, Ehrlich, ip, 120 h, 0.19 mg/kg/day i.p., 5 days, read-out: Inhibition ratio

SMILES: O=NN(CCCl)C(=O)NC1O[C@H](CO)[C@@H](O[C@@H]2O[C@H](CO)[C@H](O)[C@H](O)[C@H]2O)[C@H](O)[C@H]1O (stereo partly drawn) [1-(2-chloroethyl)-1-nitroso-3-(D-lactosyl)urea]
- anti-tumor activity against leukemic cells (leukemic cells): show anti-tumor activity

SMILES: O=NN(CCCl)C(=O)NC1O[C@H](CO)[C@@H](O[C@H]2O[C@H](CO)[C@@H](O)[C@H](O)[C@H]2O)[C@H](O)[C@H]1O (stereo partly drawn) [1-(2-chloroethyl)-1-nitroso-3-(D-maltosyl)urea]
- anti-tumor activity against leukemic cells (leukemic cells): show anti-tumor activity

SMILES: O=NN(CCCl)C(=O)NC1O[C@H](CO)[C@@H](O)[C@H](O)[C@@H]1O (stereo partly drawn) [1-(2-chloroethyl)-1-nitroso-3-(D-mannopyranosyl)urea]
- life span of mice implanted with L-1210 [1]: increase the life span

SMILES: COc1ccc(CN(C(=O)N(CCCl)N=O)C2O[C@H](CO)[C@@H](O[C@H]3O[C@H](CO)[C@@H](O)[C@H](O)[C@H]3O)[C@H](O)[C@H]2O)cc1 (stereo partly drawn) [Compound 3, 1-(2-chloroethyl)-1-nitroso-3-(p-methoxybenzyl)-3-[O-α-D-glucopyranosyl-(1→4)-D-glucopyranosyl]urea]
- MTD at 168 h [2]: 400 mg/kg/day
- Toxic (number of mice died/number of mice used) ([3]; 800 mg/kg/day i.p., 5 days): 5/5
- Therapeutic index (MTD/MED) [3]: 256
- inhibition in vivo at 0.78 mg/kg [3, 4]: 23.1%
- inhibition in vivo at 1.56 mg/kg [3, 5]: 100%
- inhibition in vivo at 6.25 mg/kg [3, 5]: 100%
- inhibition in vivo at 25 mg/kg [3, 6]: 100%
- inhibition in vivo at 100 mg/kg [3, 5]: 100%
- inhibition in vivo at 400 mg/kg [3, 5]: 100%
- minimal effective dose [3, 7]: 1.56 mg/kg/day
- 60-day survivors (mice survived/mice used) (Leukemia L-1210; 25 mg/kg/day i.p.): 0/4
- ILS (Leukemia L-1210; 25 mg/kg/day i.p.): 50.7%
- 60-day survivors (mice survived/mice used) (Leukemia L-1210; 200 mg/kg/day i.p.): 2/4
- ILS (Leukemia L-1210; 200 mg/kg/day i.p.): > 328.8%
- 60-day survivors (mice survived/mice used) (Leukemia L-1210; 400 mg/kg/day i.p.): 4/4
- ILS (Leukemia L-1210; 400 mg/kg/day i.p.): > 721.9%

SMILES: O=NN(CCCl)C(=O)N(Cc1ccco1)C1O[C@H](CO)[C@@H](O[C@H]2O[C@H](CO)[C@@H](O)[C@H](O)[C@H]2O)[C@H](O)[C@H]1O (stereo partly drawn) [Compound 6, 1-(2-chloroethyl)-1-nitroso-3-furfuryl-3-[O-α-D-glucopyranosyl-(1→4)-D-glucopyranosyl]urea]
- MTD at 168 h [2]: 400 mg/kg/day
- Toxic (number of mice died/number of mice used) ([3]; 800 mg/kg/day i.p., 5 days): 5/5
- Therapeutic index (MTD/MED) [3]: 128
- inhibition in vivo at 0.78 mg/kg [3, 4]: 21.6%
- inhibition in vivo at 1.56 mg/kg [3, 5]: 76.5%
- inhibition in vivo at 3.12 mg/kg ([3]; Mus musculus, Ehrlich, ip, 120 h, 3.12 mg/kg/day i.p., 5 days, read-out: Inhibition ratio): 100%
- inhibition in vivo at 6.25 mg/kg [3, 5]: 100%
- inhibition in vivo at 25 mg/kg [3, 6]: 100%
- inhibition in vivo at 100 mg/kg [3, 5]: 100%
- inhibition in vivo at 400 mg/kg [3, 5]: 100%
- minimal effective dose [3, 7]: 3.12 mg/kg/day
- 60-day survivors (mice survived/mice used) (Leukemia L-1210; 25 mg/kg/day i.p.): 0/4
- ILS (Leukemia L-1210; 25 mg/kg/day i.p.): 65.3%
- 60-day survivors (mice survived/mice used) (Leukemia L-1210; 100 mg/kg/day i.p.): 2/4
- ILS (Leukemia L-1210; 100 mg/kg/day i.p.): > 351.4%
- 60-day survivors (mice survived/mice used) (Leukemia L-1210; 200 mg/kg/day i.p.): 4/4
- ILS (Leukemia L-1210; 200 mg/kg/day i.p.): > 733.3%

SMILES: O=NN(CCCl)C(=O)N(CC1CC1)C1O[C@H](CO)[C@H](O)[C@H](O)[C@H]1O (stereo partly drawn) [Compound 8, 1-(2-chloroethyl)-1-nitroso-3-cyclopropylmethyl-3-(D-galactopyranosyl)urea]
- MTD at 168 h [2]: 100 mg/kg/day
- Toxic (number of mice died/number of mice used) ([3]; 200 mg/kg/day i.p., 5 days): 3/5
- Therapeutic index (MTD/MED) [3]: 128
- inhibition in vivo at 0.39 mg/kg [3, 8]: 21.1%
- inhibition in vivo at 0.78 mg/kg [3, 4]: 100%
- inhibition in vivo at 1.56 mg/kg [3, 5]: 100%
- inhibition in vivo at 6.25 mg/kg [3, 5]: 100%
- inhibition in vivo at 25 mg/kg [3, 6]: 100%
- inhibition in vivo at 100 mg/kg [3, 5]: 100%
- minimal effective dose [3, 7]: 0.78 mg/kg/day
- 60-day survivors (mice survived/mice used) (Leukemia L-1210; 6.25 mg/kg/day i.p.): 0/4
- ILS (Leukemia L-1210; 6.25 mg/kg/day i.p.): 53.8%
- 60-day survivors (mice survived/mice used) (Leukemia L-1210; 25 mg/kg/day i.p.): 4/4
- ILS (Leukemia L-1210; 25 mg/kg/day i.p.): > 650.0%
- 60-day survivors (mice survived/mice used) (Leukemia L-1210; 50 mg/kg/day i.p.): 4/4
- ILS (Leukemia L-1210; 50 mg/kg/day i.p.): > 650.0%

SMILES: O=NN(CCCl)C(=O)N(CC1CCCO1)C1O[C@H](CO)[C@H](O)[C@H](O)[C@H]1O (stereo partly drawn) [Compound 9, 1-(2-chloroethyl)-1-nitroso-3-tetrahydrofurfuryl-3-(D-galactopyranosyl)urea]
- MTD at 168 h [2]: 100 mg/kg/day
- Toxic (number of mice died/number of mice used) ([3]; 200 mg/kg/day i.p., 5 days): 5/5
- Therapeutic index (MTD/MED) [3]: 64
- inhibition in vivo at 0.39 mg/kg [3, 8]: 6.2%
- inhibition in vivo at 0.78 mg/kg [3, 4]: 37.5%
- inhibition in vivo at 1.56 mg/kg [3, 5]: 100%
- inhibition in vivo at 6.25 mg/kg [3, 5]: 100%
- inhibition in vivo at 25 mg/kg [3, 6]: 100%
- inhibition in vivo at 100 mg/kg [3, 5]: 100%
- minimal effective dose [3, 7]: 1.56 mg/kg/day
- 60-day survivors (mice survived/mice used) (Leukemia L-1210; 6.25 mg/kg/day i.p.): 0/4
- ILS (Leukemia L-1210; 6.25 mg/kg/day i.p.): 55.3%
- 60-day survivors (mice survived/mice used) (Leukemia L-1210; 25 mg/kg/day i.p.): 4/4
- ILS (Leukemia L-1210; 25 mg/kg/day i.p.): > 689.5%
- 60-day survivors (mice survived/mice used) (Leukemia L-1210; 100 mg/kg/day i.p.): 4/4
- ILS (Leukemia L-1210; 100 mg/kg/day i.p.): > 689.5%

SMILES: O=NN(CCCl)C(=O)N(CC1CC1)C1OC[C@H](O)[C@H](O)[C@H]1O (stereo partly drawn) [Compound 10, 1-(2-chloroethyl)-1-nitroso-3-cyclopropylmethyl-3-(L-arabinopyranosyl)urea]
- MTD at 168 h [2]: 100 mg/kg/day
- Toxic (number of mice died/number of mice used) ([3]; 200 mg/kg/day i.p., 5 days): 5/5
- Therapeutic index (MTD/MED) [3]: 128
- inhibition in vivo at 0.19 mg/kg [3, 9]: 17.9%
- inhibition in vivo at 0.39 mg/kg [3, 8]: 79.5%
- inhibition in vivo at 0.78 mg/kg [3, 4]: 100%
- inhibition in vivo at 1.56 mg/kg [3, 5]: 100%
- inhibition in vivo at 6.25 mg/kg [3, 5]: 100%
- inhibition in vivo at 25 mg/kg [3, 6]: 100%
- inhibition in vivo at 100 mg/kg [3, 5]: 100%
- minimal effective dose [3, 7]: 0.78 mg/kg/day
- 60-day survivors (mice survived/mice used) (Leukemia L-1210; 6.25 mg/kg/day i.p.): 0/4
- ILS (Leukemia L-1210; 6.25 mg/kg/day i.p.): 82.2%
- 60-day survivors (mice survived/mice used) (Leukemia L-1210; 25 mg/kg/day i.p.): 4/4
- ILS (Leukemia L-1210; 25 mg/kg/day i.p.): > 721.9%
- 60-day survivors (mice survived/mice used) (Leukemia L-1210; 50 mg/kg/day i.p.): 4/4
- ILS (Leukemia L-1210; 50 mg/kg/day i.p.): > 721.9%

SMILES: O=NN(CCCl)C(=O)N(Cc1cccs1)C1OC[C@H](O)[C@H](O)[C@H]1O (stereo partly drawn) [Compound 13, 1-(2-chloroethyl)-1-nitroso-3-(thiophen-2-yl-methyl)-3-(L-arabinopyranosyl)urea]
- MTD at 168 h [2]: 100 mg/kg/day
- Toxic (number of mice died/number of mice used) ([3]; 200 mg/kg/day i.p., 5 days): 5/5
- Therapeutic index (MTD/MED) [3]: 128
- inhibition in vivo at 0.19 mg/kg [3, 9]: 18%
- inhibition in vivo at 0.39 mg/kg [3, 8]: 54%
- inhibition in vivo at 0.78 mg/kg [3, 4]: 100%
- inhibition in vivo at 1.56 mg/kg [3, 5]: 100%
- inhibition in vivo at 6.25 mg/kg [3, 5]: 100%
- inhibition in vivo at 25 mg/kg [3, 6]: 100%
- inhibition in vivo at 100 mg/kg [3, 5]: 100%
- minimal effective dose [3, 7]: 0.78 mg/kg/day
- 60-day survivors (mice survived/mice used) (Leukemia L-1210; 12.5 mg/kg/day i.p.): 0/4
- ILS (Leukemia L-1210; 12.5 mg/kg/day i.p.): 121.4%
- 60-day survivors (mice survived/mice used) (Leukemia L-1210; 25 mg/kg/day i.p.): 2/4
- ILS (Leukemia L-1210; 25 mg/kg/day i.p.): > 442.9%
- 60-day survivors (mice survived/mice used) (Leukemia L-1210; 50 mg/kg/day i.p.): 2/4
- ILS (Leukemia L-1210; 50 mg/kg/day i.p.): > 414.3%

SMILES: O=NN(CCCl)C(=O)N[C@@H]1O[C@H](CO)[C@@H](O)[C@H](O)[C@H]1O [GANU, 1-(2-chloroethyl)-1-nitroso-3-(D-glucopyranosyl)urea, reference compound]
- Inhibition ratio ([3]; 0.09 mg/kg/day i.p., 5 days): 4.2%
- Inhibition ratio ([3]; 0.19 mg/kg/day i.p., 5 days): 79.2%
- Inhibition ratio ([3]; 0.39 mg/kg/day i.p., 5 days): 100%
- Inhibition ratio ([3]; 0.78 mg/kg/day i.p., 5 days): 100%
- Inhibition ratio ([3]; 3.12 mg/kg/day i.p., 5 days): 100%
- Toxic (number of mice died/number of mice used) ([3]; 25 mg/kg/day i.p., 5 days): 5/5
- Therapeutic index (MTD/MED) [3]: 32
- minimal effective dose [3, 7]: 0.39 mg/kg/day
- MTD (Maximum Tolerated Dose) ([3]; max dose, 100% inhibition without death, doses of the table in mg/kg/day, 10080 min): 12.5
- life span of mice implanted with L-1210 [1]: increase the life span
